# From PubChem BioAssay (NCI)
#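 Dose response: 5 concentrations. Exposure: 48 h. Format: 96-well plates. Endpoint: linear interpolation; highest concentration if not reached. TGI: concentration producing complete growth inhibition.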
# Key:
# Test in all cases: growth of human tumour cells (NCI), 48 h
# HS 578T breast = test system: HS 578T breast
# CAKI-1 renal = test system: CAKI-1 renal
# M14 melanoma = test system: M14 melanoma
# SW-620 colon = test system: SW-620 colon
# SK-OV-3 ovarian = test system: SK-OV-3 ovarian
# RPMI-8226 leukemia = test system: RPMI-8226 leukemia
# UACC-62 melanoma = test system: UACC-62 melanoma
# RXF 393 renal = test system: RXF 393 renal
# SR leukemia = test system: SR leukemia
# OVCAR-5 ovarian = test system: OVCAR-5 ovarian
# NCI-H226 lung = test system: NCI-H226 lung
# COLO 205 colon = test system: COLO 205 colon
# T-47D breast = test system: T-47D breast
# HL-60(TB) leukemia = test system: HL-60(TB) leukemia
# HCT-116 colon = test system: HCT-116 colon
# K-562 leukemia = test system: K-562 leukemia
# PC-3 prostate = test system: PC-3 prostate
# HOP-62 NSCLC = test system: HOP-62 NSCLC
# OVCAR-4 ovarian = test system: OVCAR-4 ovarian
# SF-295 CNS = test system: SF-295 CNS
# SNB-19 CNS = test system: SNB-19 CNS
# MDA-MB-231 breast = test system: MDA-MB-231 breast
# SK-MEL-5 melanoma = test system: SK-MEL-5 melanoma
# EKVX NSCLC = test system: EKVX NSCLC
# HOP-92 NSCLC = test system: HOP-92 NSCLC
# OVCAR-8 ovarian = test system: OVCAR-8 ovarian
# LOX IMVI melanoma = test system: LOX IMVI melanoma
# NCI-H522 lung = test system: NCI-H522 lung
# MALME-3M melanoma = test system: MALME-3M melanoma
# CCRF-CEM leukemia = test system: CCRF-CEM leukemia
# NCI-H460 lung = test system: NCI-H460 lung
# HCC-2998 colon = test system: HCC-2998 colon
# MDA-MB-435 = test system: MDA-MB-435
# HT29 colon = test system: HT29 colon
# A549 NSCLC = test system: A549 NSCLC
# 786-0 renal = test system: 786-0 renal
# MOLT-4 leukemia = test system: MOLT-4 leukemia
# UACC-257 melanoma = test system: UACC-257 melanoma
# HCT-15 colon = test system: HCT-15 colon
# IGROV1 ovarian = test system: IGROV1 ovarian
# SK-MEL-2 melanoma = test system: SK-MEL-2 melanoma
# ACHN renal = test system: ACHN renal
# BT-549 breast = test system: BT-549 breast
# MDA-N = test system: MDA-N
# TK-10 renal = test system: TK-10 renal
# SN12C renal = test system: SN12C renal
# NCI/ADR-RES ovarian = test system: NCI/ADR-RES ovarian
# SK-MEL-28 melanoma = test system: SK-MEL-28 melanoma
# KM12 colon = test system: KM12 colon
# MCF7 breast = test system: MCF7 breast
# U251 CNS = test system: U251 CNS
# UO-31 renal = test system: UO-31 renal
# SF-539 CNS = test system: SF-539 CNS
# SF-268 CNS = test system: SF-268 CNS
# SNB-75 CNS = test system: SNB-75 CNS
# DU-145 prostate = test system: DU-145 prostate
# OVCAR-3 ovarian = test system: OVCAR-3 ovarian
# A498 renal = test system: A498 renal
# NCI-H23 lung = test system: NCI-H23 lung
compound,measurement,setting,value
COc1cc(-c2cc(=O)c3c(OC)c(OC)c(OC)c(OC)c3o2)c(OC)c(OC)c1OC,TGI,HS 578T breast,> 100 µM
same,TGI,CAKI-1 renal,> 100 µM
same,TGI,M14 melanoma,> 100 µM
same,TGI,SW-620 colon,> 100 µM
same,TGI,SK-OV-3 ovarian,> 100 µM
same,TGI,RPMI-8226 leukemia,> 100 µM
same,TGI,UACC-62 melanoma,49.1 µM
same,TGI,RXF 393 renal,> 100 µM
same,TGI,SR leukemia,> 100 µM
same,TGI,OVCAR-5 ovarian,> 100 µM
same,TGI,NCI-H226 lung,> 100 µM
same,TGI,COLO 205 colon,> 100 µM
same,TGI,T-47D breast,51 µM
same,TGI,HL-60(TB) leukemia,> 100 µM
same,TGI,HCT-116 colon,> 100 µM
same,TGI,K-562 leukemia,> 100 µM
same,TGI,PC-3 prostate,50.1 µM
same,TGI,HOP-62 NSCLC,> 100 µM
same,TGI,OVCAR-4 ovarian,> 100 µM
same,TGI,SF-295 CNS,> 100 µM
same,TGI,SNB-19 CNS,> 100 µM
same,TGI,MDA-MB-231 breast,> 100 µM
same,TGI,SK-MEL-5 melanoma,> 100 µM
same,TGI,EKVX NSCLC,> 100 µM
same,TGI,HOP-92 NSCLC,82.5 µM
same,TGI,OVCAR-8 ovarian,> 100 µM
same,TGI,LOX IMVI melanoma,> 100 µM
same,TGI,NCI-H522 lung,94.6 µM
same,TGI,MALME-3M melanoma,> 100 µM
same,TGI,CCRF-CEM leukemia,> 100 µM
same,TGI,NCI-H460 lung,> 100 µM
same,TGI,HCC-2998 colon,> 100 µM
same,TGI,MDA-MB-435,> 100 µM
same,TGI,HT29 colon,> 100 µM
same,TGI,A549 NSCLC,> 100 µM
same,TGI,786-0 renal,> 100 µM
same,TGI,MOLT-4 leukemia,> 100 µM
same,TGI,UACC-257 melanoma,> 100 µM
same,TGI,HCT-15 colon,> 100 µM
same,TGI,IGROV1 ovarian,> 100 µM
same,TGI,SK-MEL-2 melanoma,49.4 µM
same,TGI,ACHN renal,> 100 µM
same,TGI,BT-549 breast,56.8 µM
same,TGI,MDA-N,> 100 µM
same,TGI,TK-10 renal,> 100 µM
same,TGI,SN12C renal,> 100 µM
same,TGI,NCI/ADR-RES ovarian,66.8 µM
same,TGI,SK-MEL-28 melanoma,> 100 µM
same,TGI,KM12 colon,90.3 µM
same,TGI,MCF7 breast,> 100 µM
same,TGI,U251 CNS,> 100 µM
same,TGI,UO-31 renal,88.6 µM
same,TGI,SF-539 CNS,> 100 µM
same,TGI,SF-268 CNS,> 100 µM
same,TGI,SNB-75 CNS,> 100 µM
same,TGI,DU-145 prostate,> 100 µM
CCSc1n/c(=C\c2ccco2)c2nnnn12,TGI,HS 578T breast,> 100 µM
same,TGI,CAKI-1 renal,> 100 µM
same,TGI,M14 melanoma,> 100 µM
same,TGI,SW-620 colon,> 100 µM
same,TGI,SK-OV-3 ovarian,> 100 µM
same,TGI,RPMI-8226 leukemia,> 100 µM
same,TGI,UACC-62 melanoma,> 100 µM
same,TGI,RXF 393 renal,> 100 µM
same,TGI,OVCAR-5 ovarian,> 100 µM
same,TGI,NCI-H226 lung,> 100 µM
same,TGI,COLO 205 colon,> 100 µM
same,TGI,T-47D breast,> 100 µM
same,TGI,HCT-116 colon,> 100 µM
same,TGI,OVCAR-3 ovarian,> 100 µM
same,TGI,A498 renal,> 100 µM
same,TGI,PC-3 prostate,> 100 µM
same,TGI,HOP-62 NSCLC,> 100 µM
same,TGI,OVCAR-4 ovarian,> 100 µM
same,TGI,NCI-H23 lung,> 100 µM
same,TGI,SF-295 CNS,> 100 µM
same,TGI,SNB-19 CNS,> 100 µM
same,TGI,MDA-MB-231 breast,> 100 µM
same,TGI,SK-MEL-5 melanoma,> 100 µM
same,TGI,EKVX NSCLC,> 100 µM
same,TGI,HOP-92 NSCLC,> 100 µM
same,TGI,OVCAR-8 ovarian,> 100 µM
same,TGI,LOX IMVI melanoma,> 100 µM
same,TGI,NCI-H522 lung,> 100 µM
same,TGI,MALME-3M melanoma,> 100 µM
same,TGI,CCRF-CEM leukemia,> 100 µM
same,TGI,HCC-2998 colon,> 100 µM
same,TGI,MDA-MB-435,> 100 µM
same,TGI,HT29 colon,> 100 µM
same,TGI,A549 NSCLC,> 100 µM
same,TGI,786-0 renal,> 100 µM
same,TGI,MOLT-4 leukemia,> 100 µM
same,TGI,UACC-257 melanoma,> 100 µM
same,TGI,HCT-15 colon,> 100 µM
same,TGI,IGROV1 ovarian,> 100 µM
same,TGI,SK-MEL-2 melanoma,> 100 µM
same,TGI,ACHN renal,> 100 µM
same,TGI,BT-549 breast,> 100 µM
same,TGI,MDA-N,> 100 µM
same,TGI,TK-10 renal,> 100 µM
same,TGI,SN12C renal,> 100 µM
same,TGI,NCI/ADR-RES ovarian,> 100 µM
same,TGI,SK-MEL-28 melanoma,> 100 µM
same,TGI,KM12 colon,> 100 µM
same,TGI,MCF7 breast,> 100 µM
same,TGI,U251 CNS,> 100 µM
same,TGI,UO-31 renal,> 100 µM
same,TGI,SF-539 CNS,> 100 µM
same,TGI,SF-268 CNS,> 100 µM
same,TGI,SNB-75 CNS,> 100 µM
same,TGI,DU-145 prostate,> 100 µM
